Measurements: ChEMBL document CHEMBL1141045, “Cyclic sulfamide gamma-secretase inhibitors” (Bioorg Med Chem Lett, 2005)

Experiments:
Gamma-secretase = experiment: Inhibitory concentration against gamma-secretase in whole cell SH-SY5Y assay; assay type: protein-complex assay
[1] = AUC after administration of 1 (mpk) to rat through oral route; assay type: ADME, organism-based; conditions: plasma, 1 mg/kg
Rattus norvegicus = experiment: (§1) AUC after administration of 30 (mpk) to rat through oral route; assay type: ADME, organism-based, Plasma; conditions: in vivo, 30 mg/kg
[2] = as §1; assay type: ADME, organism-based, Plasma; conditions: plasma, 30 mg/kg
[3] = AUC after administration of 4 (mpk) to rat through oral route; assay type: ADME, organism-based; conditions: plasma, 4 mg/kg

## CC(=O)N1CCN(C/C=C/c2ccc3c(c2)C[C@H]2CC[C@@H](C3)[C@]23CN(CC(F)(F)F)S(=O)(=O)N3)CC1
Gamma-secretase
  IC50: 4 nM

## CCCCNS(=O)(=O)N[C@H]1[C@@H]2CC[C@H]1Cc1ccccc1C2
Gamma-secretase
  IC50: 766 nM

## CCCCN1C[C@]2(NS1(=O)=O)[C@@H]1CC[C@H]2Cc2ccccc2C1
Gamma-secretase
  IC50: 122 nM

## CCN1C[C@]2(NS1(=O)=O)[C@@H]1CC[C@H]2Cc2ccccc2C1
Gamma-secretase
  IC50: 429 nM

## CC1CCN(C/C=C/c2ccc3c(c2)C[C@H]2CC[C@@H](C3)[C@]23CN(CC(F)(F)F)S(=O)(=O)N3)CC1
Gamma-secretase
  IC50: 18 nM

## O=S1(=O)N[C@@]2(CN1C(F)(F)F)[C@@H]1CC[C@H]2Cc2ccccc2C1
Gamma-secretase
  IC50: 17 nM

## CCNS(=O)(=O)N[C@H]1[C@@H]2CC[C@H]1Cc1ccccc1C2
Gamma-secretase
  IC50: 394 nM

## O=S1(=O)N[C@@]2(CN1CC(F)(F)F)[C@@H]1CC[C@H]2Cc2ccc(/C=C/CN3CCCCC3)cc2C1
Gamma-secretase
  IC50: 250 nM

## O=S(=O)(N[C@H]1[C@@H]2CC[C@H]1Cc1ccccc1C2)NC(F)(F)F
Gamma-secretase
  IC50: 134 nM

## CN1CCN(C/C=C/c2ccc3c(c2)C[C@H]2CC[C@@H](C3)[C@]23CN(CC(F)(F)F)S(=O)(=O)N3)CC1=O
Gamma-secretase
  IC50: 21 nM

## O=S1(=O)N[C@@]2(CN1CC(F)(F)F)[C@@H]1CC[C@H]2Cc2ccc(/C=C/CN3CCOCC3)cc2C1
Gamma-secretase
  IC50: 3.4 nM

## CCCN1C[C@]2(NS1(=O)=O)[C@@H]1CC[C@H]2Cc2ccc(/C=C/CN3CCOCC3)cc2C1
[1]
  AUC: 1.19 µM·h
Gamma-secretase
  IC50: 19 nM

## O=S(=O)(N[C@H]1[C@@H]2CC[C@H]1Cc1ccccc1C2)c1ccc(Cl)s1
Rattus norvegicus
  AUC: 0.01 uMh

## CCCNS(=O)(=O)N[C@H]1[C@@H]2CC[C@H]1Cc1ccccc1C2
Gamma-secretase
  IC50: 132 nM
[2]
  AUC: 0.6 µM·h

## CCCN1C[C@]2(NS1(=O)=O)[C@@H]1CC[C@H]2Cc2ccccc2C1
[1]
  AUC: 0.1 µM·h
Gamma-secretase
  IC50: 138 nM

## O=S1(=O)N[C@@]2(CN1CC(F)(F)F)[C@@H]1CC[C@H]2Cc2ccc(/C=C/CN3CCC(C(F)(F)F)CC3)cc2C1
Gamma-secretase
  IC50: 0.5 nM

## CCCN1C[C@]2(NS1(=O)=O)[C@@H]1CC[C@H]2Cc2ccc(/C=C/CN3CCC(C(F)(F)F)CC3)cc2C1
Gamma-secretase
  IC50: 2 nM

## O=S(=O)(NC1[C@@H]2CC[C@H]1Cc1ccc(/C=C/CN3CCOCC3)cc1C2)c1ccc(Cl)s1 (some centres not stated)
Gamma-secretase
  IC50: 1 nM
[3]
  AUC: 0.38 µM·h
